For series [1], the target named is H1N1 NA (A/PuertoRico/8/1934) (Influenza A virus, UniProt P03468). Kind of series: biochemical.
The subject of series [2] is A/Goose/Guangdong/SH7/2013 (H5N1). Kind of series: microbe, parasite or virus in culture. The series is classed as cell-based. As to conditions: read-out: EC50 towards influenza virus H5N1.
Series [3] relates to A/Goose/Jiangsu/1306/2014 (H5N8). Kind of series: microbe, parasite or virus in culture. Format: cell-based. As to conditions: read-out: EC50 towards influenza virus H5N8.
A further series concerns A/PR/8/34 (H1N1). Description: microbe, parasite or virus in culture. Format: cell-based. The following applies: read-out: EC50 towards influenza virus H1N1.
The test system of a further series is A/Wisconsin/67/05 (H3N2). Description: microbe, parasite or virus in culture. As to conditions: read-out: EC50 towards influenza virus H3N2. The series is classed as cell-based.
Series [4] can be described thus: in vitro. As to conditions: chicken.
A short description of series [5]: in vitro. The following applies: dog.
The target in series [6] is H5N1 NA (A/Goose/Guangdong/SH7/2013) (Influenza A virus, UniProt V5P6N1). Format: biochemical.
The test system of another series is Kunming mice. As to conditions: mouse, in vivo.
For a further series, the system named is N1, H5N1. As to conditions: cited from earlier work.

As usually defined, the IC50 is the concentration needed to halve the response being measured. Usually EC50 stands for the concentration giving half of the maximal effect. In general, melting point refers to the temperature of the solid-liquid transition.

Read-outs that look alike come from different tables or passages of the source.

For the compound `CCC(CC)O[C@@H]1C=C(C(=O)O)C[C@H](NCc2ccc(OCc3ccc(B(O)O)cc3)cc2)[C@H]1NC(C)=O` [Compound 3c, (3R,4R,5S)-4-acetamido-5-((4-((4-boronobenzyl)oxy)benzyl)amino)-3-(pentan-3-yloxy)cyclohex-1-ene-1-carboxylic acid], the melting point was 168.3 to 172.1 °C (dec.). Moreover, in [1], the midpoint of inhibition, the IC50, lay at 45 ± 6.7 nM. Moreover, the half-maximal effective concentration (EC50) in series [2] (Influenza A virus, H5N1, CEF) was 3200 ± 440 nM. Further, the half-maximal effective concentration (EC50) in series [3] (Influenza A virus, H5N8, CEF) was 2510 ± 230 nM. Moreover, the EC50 with A/PR/8/34 (H1N1) (Influenza A virus, MDCK) came to 20 ± 10 nM. Also, the EC50 with A/Wisconsin/67/05 (H3N2) (Influenza A virus, H3N2, MDCK) worked out at 3080 ± 590 nM. Further, the CC50 in “in vitro [4]” amounted to 289000 ± 15800 nM. This compound had a CC50 in the series “in vitro [5]” greater than 250000 nM.
The compound `CCC(CC)O[C@@H]1C=C(C(=O)O)C[C@H](NCc2ccc(OCc3cccc(B(O)O)c3)cc2)[C@H]1NC(C)=O` [Compound 2c, (3R,4R,5S)-4-acetamido-5-((4-((3-boronobenzyl)oxy)benzyl)amino)-3-(pentan-3-yloxy)cyclohex-1-ene-1-carboxylic acid] displayed an IC50 in series [1] of 60 ± 7 nM. Further, the “fold lower potency than OSC against H5N1 in the enzymatic assay” value in [6] is listed as 3.9 fold. Besides, the EC50 in series [2] (Influenza A virus, H5N1, CEF) is 690 ± 91 nM; in series [3] (Influenza A virus, H5N8, CEF), 1570 ± 210 nM; in the series on A/PR/8/34 (H1N1) (Influenza A virus, MDCK), 30 ± 30 nM; in the series on A/Wisconsin/67/05 (H3N2) (Influenza A virus, H3N2, MDCK), 11100 ± 1150 nM. The “behavior abnormalities (lethargy, clonic convulsions, anorexia, ruffled fur)” value in the series on Kunming mice is “no significant behavior abnormalities”. Further, the body weight entry with Kunming mice is listed as “increased gradually”. Besides, the death entry with Kunming mice is recorded as “no death occurred”. Also, in the series with Kunming mice (1000 mg/kg), the acute toxicity entry is “no acute toxicity”. Also, the values for the CC50 in the series “in vitro [4]” and in “in vitro [5]” were 143000 ± 9560 nM and greater than 250000 nM, respectively.
On to `CCC(CC)OC1C=C(C(=O)O)CC(NCc2ccc(-c3cccs3)cc2)C1NC(C)=O` (stereo not drawn) [JMC32], for which the IC50 in the series with N1, H5N1 was 2.1 nM.
In turn, `CCC(CC)O[C@@H]1C=C(C(=O)O)C[C@H](NCc2ccc(OCc3cccc(C(N)=O)c3)cc2)[C@H]1NC(C)=O` [Compound 14c, (3R,4R,5S)-4-acetamido-5-((4-((3-carbamoylbenzyl)oxy)benzyl)amino)-3-(pentan-3-yloxy)cyclohex-1-ene-1-carboxylic acid] had an IC50 in series [1] of 11 ± 1.3 nM. The EC50 in series [2] (Influenza A virus, H5N1, CEF) was 1180 ± 170 nM; in series [3] (Influenza A virus, H5N8, CEF), 2800 ± 460 nM; with A/PR/8/34 (H1N1) (Influenza A virus, MDCK), 210 ± 20 nM; in the series with A/Wisconsin/67/05 (H3N2) (Influenza A virus, H3N2, MDCK), greater than 100000 nM. The CC50 in the series “in vitro [4]” is 291000 ± 17900 nM; in “in vitro [5]” it was greater than 250000 nM.
Consider `CCC(CC)O[C@@H]1C=C(C(=O)O)C[C@H](N)[C@H]1NC(C)=O` [OSC, oseltamivir carboxylate, reference compound], for which the EC50 in series [2] amounted to 760 ± 66 nM; in series [3], 2010 ± 61 nM; with A/PR/8/34 (H1N1) it was […]; in the series on A/Wisconsin/67/05 (H3N2) it was 360 ± 160 nM. For the same compound, the CC50 in the series “in vitro [4]” is 201000 ± 4050 nM; in the series “in vitro [5]”, greater than 250000 nM.
`CCC(CC)OC1C=C(C(=O)O)CC(NCc2ccc(Sc3cccs3)cc2)C1NC(C)=O` (stereo not drawn) [JMC21g]: in the series with N1, H5N1, the IC50 was 3.83 nM.
On to `CCC(CC)OC1C=C(C(=O)O)CC(NCc2ccc(Sc3ccccc3)cc2)C1NC(C)=O` (stereo not drawn) [JMC21h], for which, in the series with N1, H5N1, the IC50 is 0.96 nM.
In the case of `CCC(CC)O[C@@H]1C=C(C(=O)O)C[C@H](NCc2ccc(OCc3ccccc3[N+](=O)[O-])cc2)[C@H]1NC(C)=O` [Compound 11c, (3R,4R,5S)-4-acetamido-5-((4-((2-nitrobenzyl)oxy)benzyl)amino)-3-(pentan-3-yloxy)cyclohex-1-ene-1-carboxylic acid], the melting point fell in the range of 150.8 to 152.7 °C. This compound also registered an IC50 in series [1] of 1160 ± 110 nM.
On to `CCC(CC)O[C@@H]1C=C(C(=O)O)C[C@H](NCc2ccc(OCc3ccc(S(=O)(=O)O)cc3)cc2)[C@H]1NC(C)=O` [Compound 18c, (3R,4R,5S)-4-acetamido-3-(pentan-3-yloxy)-5-((4-((4-sulfobenzyl)oxy)benzyl)amino)cyclohex-1-ene-1-carboxylic acid], for which the melting point was 244.5 to 248.7 °C (dec.). The compound also had an IC50 in series [1] of 1640 ± 120 nM.
With `CCC(CC)O[C@@H]1C=C(C(=O)O)C[C@H](NCc2ccc(OCc3ccc(C(=O)O)cc3Cl)cc2)[C@H]1NC(C)=O` [Compound 8c, 4-((4-((((1S,5R,6R)-6-acetamido-3-carboxy-5-(pentan-3-yloxy)cyclohex-3-en-1-yl)amino)methyl)phenoxy)methyl)-3-chlorobenzoic acid], the melting point was 189.3 to 192.1 °C (dec.). The compound further came in with an IC50 in series [1] of 250 ± 31 nM.
Take `CCC(CC)OC1C=C(C(=O)O)CC(NCc2ccc(-c3ccccc3)cc2)C1NC(C)=O` (stereo not drawn) [JMC20I]: in the series with N1, H5N1, the IC50 was 1.9 nM.
For `CCC(CC)O[C@@H]1C=C(C(=O)O)C[C@H](NCc2ccc(OCc3cccc(S(N)(=O)=O)c3)cc2)[C@H]1NC(C)=O` [Compound 16c, (3R,4R,5S)-4-acetamido-3-(pentan-3-yloxy)-5-((4-((3-sulfamoylbenzyl)oxy)benzyl)amino)cyclohex-1-ene-1-carboxylic acid], the melting point was 193.2 to 198.1 °C (dec.). Also, the IC50 in [1] was determined as 900 ± 130 nM.
For `CCC(CC)O[C@@H]1C=C(C(=O)O)C[C@H](NCc2ccc(OCc3ccccc3B(O)O)cc2)[C@H]1NC(C)=O` [Compound 1c, (3R,4R,5S)-4-acetamido-5-((4-((2-boronobenzyl)oxy)benzyl)amino)-3-(pentan-3-yloxy)cyclohex-1-ene-1-carboxylic acid], in that order: 146.3 to 150.5 °C (dec.) and 690 ± 130 nM.
Take `CC(=O)N[C@H]1[C@H]([C@H](O)[C@H](O)CO)OC(C(=O)O)=C[C@@H]1N=C(N)N` [Zanamivir (ZAN), zanamivir, reference compound]: the EC50 is […] in the series with A/PR/8/34 (H1N1) (Influenza A virus, MDCK) and 270 ± 30 nM in the series with A/Wisconsin/67/05 (H3N2) (Influenza A virus, H3N2, MDCK). Further, the CC50 in “in vitro [5]” was greater than 250000 nM.
Regarding `CCC(CC)O[C@@H]1C=C(C(=O)O)C[C@H](NCc2ccc3sc4ccccc4c3c2)[C@H]1NC(C)=O` [JMC23d], the IC50 with N1, H5N1 is 0.27 nM.

(Values after PMC9571049 (Molecules, 2022).)
